The subject of the data set is CCRIS mutagenicity, Ames/micronucleus/aberration tests. The experiment in a line: CCRIS mutagenicity studies.

Activity calls are given as the source filed them. The rule behind the calls is not given here.

On to `O=C(O)CCCCCCCCC(=O)O`, for which the mutagenic call is, setting by setting: (Test System: AMES SALMONELLA TYPHIMURIUM, Strain/Indicator: TA98, Metabolic Activation: NONE, Method: PREINCUBATION) “inactive; negative”; (Test System: AMES SALMONELLA TYPHIMURIUM, Strain/Indicator: TA98, Metabolic Activation: RAT LIVER S-9, PHENOBARBITAL AND BETA-NAPHTHOFLAVONE, Method: PREINCUBATION) “inactive; negative”; (Test System: AMES SALMONELLA TYPHIMURIUM, Strain/Indicator: TA98, Metabolic Activation: RAT, LIVER, S-9, KC 500, Method: PREINCUBATION) “inactive; negative”; (Test System: AMES SALMONELLA TYPHIMURIUM, Strain/Indicator: TA100, Metabolic Activation: NONE, Method: PREINCUBATION) “inactive; negative”; (Test System: AMES SALMONELLA TYPHIMURIUM, Strain/Indicator: TA100, Metabolic Activation: RAT LIVER S-9, PHENOBARBITAL AND BETA-NAPHTHOFLAVONE, Method: PREINCUBATION) “inactive; negative”; (Test System: AMES SALMONELLA TYPHIMURIUM, Strain/Indicator: TA100, Metabolic Activation: RAT, LIVER, S-9, KC 500, Method: PREINCUBATION) “inactive; negative”. In addition, the mutagenic call is “inactive; negative” (Test System: AMES SALMONELLA TYPHIMURIUM, Strain/Indicator: TA1535, Metabolic Activation: NONE, Method: PREINCUBATION); “inactive; negative” (Test System: AMES SALMONELLA TYPHIMURIUM, Strain/Indicator: TA1535, Metabolic Activation: RAT LIVER S-9, PHENOBARBITAL AND BETA-NAPHTHOFLAVONE, Method: PREINCUBATION); “inactive; negative” (Test System: AMES SALMONELLA TYPHIMURIUM, Strain/Indicator: TA1535, Metabolic Activation: RAT, LIVER, S-9, KC 500, Method: PREINCUBATION); “inactive; negative” (Test System: AMES SALMONELLA TYPHIMURIUM, Strain/Indicator: TA1537, Metabolic Activation: NONE, Method: PREINCUBATION); “inactive; negative” (Test System: AMES SALMONELLA TYPHIMURIUM, Strain/Indicator: TA1537, Metabolic Activation: RAT LIVER S-9, PHENOBARBITAL AND BETA-NAPHTHOFLAVONE, Method: PREINCUBATION); “inactive; negative” (Test System: AMES SALMONELLA TYPHIMURIUM, Strain/Indicator: TA1537, Metabolic Activation: RAT, LIVER, S-9, KC 500, Method: PREINCUBATION). In addition, the mutagenic call was “inactive; negative” (Test System: AMES SALMONELLA TYPHIMURIUM, Strain/Indicator: TA1538, Metabolic Activation: NONE, Method: PREINCUBATION); “inactive; negative” (Test System: AMES SALMONELLA TYPHIMURIUM, Strain/Indicator: TA1538, Metabolic Activation: RAT, LIVER, S-9, KC 500, Method: PREINCUBATION); “inactive; negative” (Test System: E. COLI, Strain/Indicator: WP2UVRA/PKM101, Metabolic Activation: NONE, Method: PREINCUBATION); “inactive; negative” (Test System: E. COLI, Strain/Indicator: WP2UVRA/PKM101, Metabolic Activation: RAT LIVER S-9, PHENOBARBITAL AND BETA-NAPHTHOFLAVONE, Method: PREINCUBATION); “inactive; negative” (Test System: E. COLI, Strain/Indicator: WP2 UVRA, Metabolic Activation: NONE, Method: PREINCUBATION); “inactive; negative” (Test System: E. COLI, Strain/Indicator: WP2 UVRA, Metabolic Activation: RAT, LIVER, S-9, KC 500, Method: PREINCUBATION).
Take `Cc1ncc([N+](=O)[O-])n1CC(O)CCl` (stereo not drawn): the mutagenic call (End Point: IN VITRO CHROMOSOMAL ABERRATIONS, Test System: HUMAN LYMPHOCYTES, Metabolic Activation: NONE) is “active; positive (structural changes)”.
`O[C@@H]1C2=c3c(cc4cccc5ccc(c3c54)[C@H]1O)-c1ccccc12`: the mutagenic call (Test System: AMES SALMONELLA TYPHIMURIUM, Strain/Indicator: TA100, Metabolic Activation: RAT, LIVER, S-9, AROCLOR 1254, Method: STANDARD PLATE) is “inactive; negative”.
Take `CCOC(=O)C(SP(=S)(OC)OC)c1ccccc1` (stereo not drawn): the mutagenic call is “inactive; negative” (Test System: AMES SALMONELLA TYPHIMURIUM, Strain/Indicator: TA98, Metabolic Activation: NONE, Method: STANDARD PLATE); “inactive; negative” (Test System: AMES SALMONELLA TYPHIMURIUM, Strain/Indicator: TA98, Metabolic Activation: S-9, NADPH GENERATING SYSTEM, Method: STANDARD PLATE); “inactive; negative” (Test System: AMES SALMONELLA TYPHIMURIUM, Strain/Indicator: TA102, Metabolic Activation: NONE, Method: STANDARD PLATE); “inactive; negative” (Test System: AMES SALMONELLA TYPHIMURIUM, Strain/Indicator: TA102, Metabolic Activation: S-9, NADPH GENERATING SYSTEM, Method: STANDARD PLATE); “inactive; negative” (Test System: AMES SALMONELLA TYPHIMURIUM, Strain/Indicator: TA1535, Metabolic Activation: NONE, Method: STANDARD PLATE); “inactive; negative” (Test System: AMES SALMONELLA TYPHIMURIUM, Strain/Indicator: TA1535, Metabolic Activation: S-9, NADPH GENERATING SYSTEM, Method: STANDARD PLATE). Moreover, the mutagenic call runs as follows: (Test System: AMES SALMONELLA TYPHIMURIUM, Strain/Indicator: TA1537, Metabolic Activation: NONE, Method: STANDARD PLATE) “inactive; negative”; (Test System: AMES SALMONELLA TYPHIMURIUM, Strain/Indicator: TA1537, Metabolic Activation: S-9, NADPH GENERATING SYSTEM, Method: STANDARD PLATE) “inactive; negative”.

The values above are taken from PubChem BioAssay AID1259407 (Chemical Carcinogenesis Research Information System (CCRIS), 2018).
